Calls of active or inactive are those of the source. The rule behind the calls is not given here.
Legend:
Homo sapiens [1] = species: Homo sapiens; test: Inhibition of alpha-glucosidase (unknown origin) using p-NPG as substrate preincubated for 5 mins followed by substrate addition and measured after 30 mins relative to control; set-up: concentration or dose not given beside the values; details: time 35.0 min
Homo sapiens [2] = species: Homo sapiens; test: Inhibition of alpha-amylase (unknown origin) using starch as substrate preincubated for 10 mins followed by substrate addition and measured after 10 mins relative to control; set-up: concentration or dose not given beside the values; details: time 20.0 min
[3] = Inhibition of alpha-amylase (unknown origin) using starch as substrate measured after 30 mins; set-up: species or system Homo sapiens
[4] = Inhibition of alpha-amylase (unknown origin) using starch as substrate preincubated for 10 mins followed by substrate addition and measured after 10 mins; set-up: species or system Homo sapiens
Homo sapiens [5] = species: Homo sapiens; test: Potency index, ratio of acarbose IC50 to test compound IC50 for inhibition of alpha-amylase (unknown origin) using starch as substrate preincubated for 10 mins followed by substrate addition and measured after 10 mins; details: time 20.0 min
[6] = Inhibition of porcine pancreatic alpha-amylase using starch as substrate preincubated for 10 mins followed by substrate addition and measured after 30 mins; set-up: species or system Sus scrofa
Rattus norvegicus [7] = test: Antidiabetic activity against streptozotocin-induced diabetic Wistar rat model assessed as restoration of metabolic homeostasis by measuring ALT level in serum at 50 mg/kg, po measured on day 1 to 14 (reference value: 35.2 +/-1.58 IU/L); type: functional; details: time 1-14 day
Rattus norvegicus [8] = test: Antidiabetic activity against streptozotocin-induced diabetic Wistar rat model assessed as blood glucose level at 50 mg/kg, po and measured on day 7 (reference value: 378.8 +/-6.48 mg/dl); type: functional; details: time 7 day
Rattus norvegicus [9] = test: Antidiabetic activity against streptozotocin-induced diabetic Wistar rat model assessed as restoration of metabolic homeostasis by measuring serum creatinine level at 50 mg/kg, po measured on day 1 to 14 (reference value: 116.81 +/-9.26 uM); type: functional; details: time 1-14 day
Rattus norvegicus [10] = test: Antidiabetic activity against streptozotocin-induced diabetic Wistar rat model assessed as restoration of metabolic homeostasis by measuring ALP level in serum at 50 mg/kg, po measured on day 1 to 14 (reference value: 195.13 +/-1.08 IU/L); type: functional; details: time 1-14 day
Rattus norvegicus [11] = test: Antidiabetic activity against streptozotocin-induced diabetic Wistar rat model assessed as blood glucose level at 50 mg/kg, po and measured on day 14 (reference value: 388.3 +/-6.34 mg/dl); type: functional; details: time 14 day
Rattus norvegicus [12] = test: Antidiabetic activity against streptozotocin-induced diabetic Wistar rat model assessed as blood glucose level at 50 mg/kg, po and measured on day 1 (reference value: 324.7 +/-6.24 mg/dl); type: functional; details: time 1 day
Rattus norvegicus [13] = test: Protection against diabetes-induced organ dysfunction in streptozotocin-induced diabetic Wistar rat model assessed as reduction in pancreas damage by measuring visible improvement in islet structure with noticeable signs of atrophy remained at 50 mg/kg, po and measured on day 14 by Hematoxylin-Eosin staining based analysis; type: functional, organism-based; details: time 14.0 day
[14] = Inhibition of porcine pancreatic alpha-amylase using starch as substrate preincubated for 10 mins followed by substrate addition and measured after 5 mins; set-up: species or system Sus scrofa
Homo sapiens [15] = species: Homo sapiens; test: Mixed type of inhibition of alpha-amylase (unknown origin) assessed as change in Km and Vmax of substrate using starch as substrate and measured after 10 mins by Lineweaver-burk plot analysis
Rattus norvegicus [16] = test: Antidiabetic activity against streptozotocin-induced diabetic Wistar rat model assessed as restoration of metabolic homeostasis by measuring decrease in […] level in serum at 50 mg/kg, po measured on day 1 to 14; type: functional, organism-based; details: time 1-14 day
Rattus norvegicus [17] = test: Protection against diabetes-induced organ dysfunction in streptozotocin-induced diabetic Wistar rat model assessed as reduction in liver damage by measuring fewer congestive blood vessels, reduced hepatocyte ballooning with fewer lipid droplets at 50 mg/kg, po and measured on day 14 by Hematoxylin-Eosin staining based analysis; type: functional, organism-based; details: time 14.0 day
Rattus norvegicus [18] = test: Protection against diabetes-induced organ dysfunction in streptozotocin-induced diabetic Wistar rat model assessed as reduction in kidney damage by measuring kidney with less severe retraction and swelling with measurable hemorrhages in renal tubules and glomeruli at 50 mg/kg, po and measured on day 14 by Hematoxylin-Eosin staining based analysis; type: functional, organism-based; details: time 14.0 day
Rattus norvegicus [19] = test: Antidiabetic activity against streptozotocin-induced diabetic Wistar rat model assessed as restoration of metabolic homeostasis by measuring AST level in serum at 50 mg/kg, po measured on day 1 to 14 (reference value: 133.49 +/-2.52 IU/L); type: functional; details: time 1-14 day
[20] = Inhibition of alpha-amylase (unknown origin); set-up: species or system Homo sapiens
Rattus norvegicus [21] = test: Antidiabetic activity against streptozotocin-induced diabetic Wistar rat model assessed as restoration of metabolic homeostasis by measuring serum urea level at 50 mg/kg, po measured on day 1 to 14 (reference value: 124.68 +/-2.16 mg/dl); type: functional; details: time 1-14 day

| inhibition (Homo sapiens [1]) [%] | inhibition (Homo sapiens [2]) [%] | IC50 [4] [µM] | Structure (SMILES) | also measured |
| --- | --- | --- | --- | --- |
| 6.63 | 29.6 | – | O=C(CN1C(=O)/C(=C/c2nc3ccccc3s2)SC1=S)NC12CC3CC(CC(C3)C1)C2 | – |
| 7.42 | 37.4 | – | O=C(CN1C(=O)/C(=C/c2nc3ccccc3s2)SC1=S)Nc1cccnn1 | – |
| 8.36 | 10.2 | – | Cn1ccnc1/C=C1\SC(=S)N(CC(=O)Nc2ccc(Br)cc2F)C1=O | – |
| 5.67 | 42.1 | – | O=C(CN1C(=O)/C(=C/c2nccs2)SC1=S)NC12CC3CC(CC(C3)C1)C2 | – |
| 3.78 | 61.7 | 4.07 | O=C(CN1C(=O)/C(=C/c2nc3ccccc3s2)SC1=S)Nc1ccc(C(F)(F)F)cc1 | Ratio IC50 (Homo sapiens [5]): 234 |
| 6.24 | 59.2 | 129 | Cn1ccnc1/C=C1\SC(=S)N(CC(=O)Nc2c(F)cc(F)cc2Br)C1=O | – |
| 8.25 | 38.2 | – | Cn1ccnc1/C=C1\SC(=S)N(CC(=O)Nc2c(F)cc(Br)cc2Cl)C1=O | – |
| 76.4 | 81.2 | 951 | C[C@H]1O[C@H](O[C@H]2[C@H](O)[C@@H](O)[C@@H](O[C@H]3[C@H](O)[C@@H](O)C(O)O[C@@H]3CO)O[C@@H]2CO)[C@H](O)[C@@H](O)[C@@H]1N[C@H]1C=C(CO)[C@@H](O)[C@H](O)[C@H]1O (stereo partly drawn) [ACARBOSE] | Activity (Rattus norvegicus [7]): 12.14 IU/L; Activity (Rattus norvegicus [8]): 170.6 mg/dL; Activity (Rattus norvegicus [9]): 80.21 µM; IC50 [3]: 0.0125 µM; Activity (Rattus norvegicus [10]): 145.34 IU/L; Activity (Rattus norvegicus [11]): 119.7 mg/dL; Activity (Rattus norvegicus [12]): 315.8 mg/dL; Activity (Rattus norvegicus [13]): Active; IC50 [14]: 1.56 µM; inhibition (Homo sapiens [15]): Active; Activity (Rattus norvegicus [16]): Active; Activity (Rattus norvegicus [17]): Active; Activity (Rattus norvegicus [18]): Active; Activity (Rattus norvegicus [19]): 48.87 IU/L; IC50 [20]: 1.06 µM; Activity (Rattus norvegicus [21]): 55.28 mg/dL; IC50 [6]: 104 µM |

Further lines, the compound ahead of its results:

| Structure (SMILES) | inhibition (Homo sapiens [1]) [%] | inhibition (Homo sapiens [2]) [%] | IC50 [4] [µM] | also measured |
| --- | --- | --- | --- | --- |
| COc1ccc(C2C(C#N)=C(NC(C)=O)Oc3oc4ccccc4c(=O)c32)cc1 (stereo not drawn) | – | – | – | IC50 [3]: 0.00204 µM |
| O=C(CN1C(=O)/C(=C/c2nc3ccccc3s2)SC1=S)Nc1c(F)cc(Br)cc1Cl | 8.37 | 69.8 | 167 | – |
| O=C(CN1C(=O)/C(=C/c2nc3ccccc3s2)SC1=S)Nc1ccc(Br)cc1F | 7.65 | 69.2 | 128 | – |
| O=C(CN1C(=O)/C(=C/c2csc3ccccc23)SC1=S)Nc1c(F)cc(Br)cc1Cl | 10.2 | 68.2 | 154 | – |
| O=C(CN1C(=O)/C(=C/c2nccs2)SC1=S)Nc1c(F)cc(F)cc1Br | 4.85 | 42.8 | – | – |
| CC(=O)N1C(=O)C(Cc2cn(-c3ccc([N+](=O)[O-])cc3[N+](=O)[O-])nc2-c2ccc(O)cc2)SC1=S (stereo not drawn) | – | – | – | IC50 [6]: 638 µM |
| O=C(CN1C(=O)/C(=C/c2nccs2)SC1=S)Nc1cccnn1 | 10.1 | 10.1 | – | – |
| O=C(CN1C(=O)/C(=C/c2csc3ccccc23)SC1=S)Nc1ccc(Br)cc1F | 4.31 | 14.7 | – | – |
| O=C(CN1C(=O)/C(=C/c2nc3ccccc3s2)SC1=S)Nc1c(F)cc(F)cc1Br | 6.16 | 40.1 | – | – |
| O=C(CN1C(=O)/C(=C/c2csc3ccccc23)SC1=S)Nc1cccnn1 | 7.87 | 37.8 | – | – |

Source: ChEMBL document CHEMBL6182895, “Synthesis, in vitro and in vivo evaluation, and computational modeling analysis of thioxothiazolidine derivatives as highly potent and selective α-amylase inhibitors” (Eur J Med Chem, 2025)
